This note sets out measurements from ChEMBL document CHEMBL1201862, “PubChem BioAssay data set” (2004).

Assay in all cases: DTP human tumour cell line panel, 48 h
In test [1] the test system is 786-0.
Test [2] deals with CCRF-CEM.
Test [3] relates to EKVX.
For test [4], the system named is HCT-15.
In test [5] the test system is HL-60.
In test [6] the test system is HOP-62.
Test [7] relates to HOP-92.
Test [8] deals with Hs-578T.
For test [9], the system named is K562.
Test [10] deals with LOX IMVI.
Test [11] concerns MOLT-4.
The test system of test [12] is NCI-H460.
For test [13], the system named is PC-3.
For test [14], the system named is RXF 393.
The test system of test [15] is SK-MEL-28.
The test system of test [16] is SK-MEL-2.
For test [17], the system named is T47D.
In test [18] the test system is U-251.
Test [19] has as its system UACC-257.
The test system of test [20] is UO-31.

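Grown in 96-well plates, cells were treated for 48 hours with each compound at five concentrations. Insufficient inhibition: endpoint recorded as highest concentration tested. At the GI50, growth is halved.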 Active and inactive are the calls of the source. No stated cut-off is given here; in the data, active = GI50 up to about 1.1 µM and inactive = higher.

Turning to `O=C1OC[C@@H]2[C@@H](O)CCCCCN12`, the GI50 in test [1] was > 10 µM (inactive); in test [2] it was > 100 µM (inactive); in test [3] it was > 100 µM (inactive); in test [4], greater than 100 µM; in [5] it was > 100 µM (inactive); in test [6], > 100 µM (inactive). Also, the GI50 in [7], in test [8], in [9], in test [10], in [11] and in test [12] was > 100 µM (inactive) each time. For the same compound, the GI50 in test [13], in [14], in [15], in test [16], in test [17] and in test [18] was > 100 µM (inactive) in each case. For the same compound, the GI50 in test [19] and in test [20] was > 100 µM (inactive) each time.
Regarding `CC1(c2ccc(Cl)cc2)N=C(NCCO)c2ccccc21` (stereo not given), the GI50 in test [1] was 12.5 µM (inactive); in test [2], 2.9 µM (inactive); in [3] it was > 100 µM (inactive); in test [4] it was 26.9 µM; in test [5] it was 3.23 µM (inactive); in test [6] it was 25.1 µM (inactive). The GI50 in [7] is 8.53 µM (inactive); in [8], 37.8 µM (inactive); in test [9], 6.61 µM (inactive); in test [10], 13.8 µM (inactive); in test [11] it was 8.49 µM (inactive); in test [12], 13.3 µM (inactive). Further, the GI50 in test [13] was 32.7 µM (inactive); in test [14] it was 16.3 µM (inactive); in test [15], 9.75 µM (inactive); in test [16] it was 18.2 µM (inactive); in test [17] it was 15.9 µM (inactive); in test [18], 16.9 µM (inactive). Moreover, the GI50 in [19] was 17.1 µM (inactive); in test [20] it was 17.8 µM (inactive).
Regarding `CN(C)CCCNc1c2ccccc2nc2cccc([N+](=O)[O-])c12`, the GI50 was < 0.001 µM (active) in test [1]; 0.00824 µM (active) in test [2]; 0.00185 µM (active) in test [3]; less than 0.001 µM in [4]; 0.00362 µM (active) in test [5]; 0.0011 µM (active) in [6]. Further, the GI50 in test [7] was < 0.001 µM (active); in test [8] it was 0.00288 µM (active); in [9] it was < 0.001 µM (active); in test [10] it was 0.00142 µM (active); in [11], 0.01 µM (active); in test [12], < 0.001 µM (active). The GI50 in test [13] is < 0.001 µM (active); in [14], 0.00118 µM (active); in [15] it was 0.00235 µM (active); in test [16], < 0.001 µM (active); in test [17], 0.0158 µM (active); in test [18], 0.0103 µM (active). Besides, the GI50 was 0.00275 µM (active) in test [19] and 0.013 µM (active) in test [20].

Usually GI50 stands for the concentration at which growth is held to half of that of the control.
